Measured values as given in ChEMBL document CHEMBL3580641, “Bioactive Maleic Anhydrides and Related Diacids from the Aquatic Hyphomycete Tricladium castaneicola” (J Nat Prod, 2015).
Activity calls are given as the source filed them. The calls are words filed in the database; no cut-off is given here.

Experiments:
Phytophthora capsici = experiment: Antifungal activity against Phytophthora capsici NBRC 30696 after 22 to 24 hrs by paper disk diffusion method; type: functional, organism-based
B16 = experiment: Cytotoxicity against mouse B16 cells assessed as cell viability after 48 hrs by MTT assay; type: functional, cell-based; conditions: B16, 48 h

For `CC1=C(/C=C/CCC/C=C/CO)C(=O)OC1=O`, the Activity (Phytophthora capsici) was “inactive”.

For `CC1=C(/C=C/CCCCC(C)O)C(=O)OC1=O` (stereo unspecified), the Activity (Phytophthora capsici) was “inactive”.

For `CCCCCC/C=C/C1=C(C)C(=O)OC1=O`, the Activity (Phytophthora capsici) was “Active” and the IC50 (B16) was 80 µM.

For `C[C@@H]1[C@H](O)[C@@H](C)/C=C/C=C/C=C/C=C/C=C/C=C/C=C/[C@H](O[C@@H]2O[C@H](C)[C@@H](O)[C@H](N)[C@@H]2O)C[C@@H]2O[C@](O)(C[C@@H](O)C[C@@H](O)[C@H](O)CC[C@@H](O)C[C@@H](O)CC(=O)O[C@H]1C)C[C@H](O)[C@H]2C(=O)O`, the Activity (Phytophthora capsici) was “Active”.

For `CC1=C(/C=C/CCC/C=C/C(=O)O)C(=O)OC1=O`, the Activity (Phytophthora capsici) was “Active”.

`C=C(C(=O)O)/C(=C\CCCCCCCO)C(=O)O` was tested, and the Activity (Phytophthora capsici) was “Active”.

In the case of `C=C(C(=O)O)/C(=C\CCCC[C@@H](O)CC)C(=O)O`, the Activity (Phytophthora capsici) is reported as “Active”.

For `CCCCCC/C=C/C(C(=O)OC)=C(\C)C(=O)OC`, the Activity (Phytophthora capsici) was “Active” and the IC50 (B16) was 30 µM.

With `CC(=O)O[C@H]1C(=O)[C@@]2(C)[C@H]([C@H](OC(=O)c3ccccc3)[C@]3(O)C[C@H](OC(=O)[C@H](O)[C@@H](NC(=O)c4ccccc4)c4ccccc4)C(C)=C1C3(C)C)[C@]1(OC(C)=O)CO[C@@H]1C[C@@H]2O` [PACLITAXEL] the IC50 (B16) was 56 µM.
